Among the data in US9090618B2, “Substituted benzimidazole-type piperidine compounds and uses thereof” (priority 2012, dated 2015) are EC50 values, retold here.

Structures are written as SMILES.

human opioid receptor-like (ORL-1), sequence (P41146 whole entry): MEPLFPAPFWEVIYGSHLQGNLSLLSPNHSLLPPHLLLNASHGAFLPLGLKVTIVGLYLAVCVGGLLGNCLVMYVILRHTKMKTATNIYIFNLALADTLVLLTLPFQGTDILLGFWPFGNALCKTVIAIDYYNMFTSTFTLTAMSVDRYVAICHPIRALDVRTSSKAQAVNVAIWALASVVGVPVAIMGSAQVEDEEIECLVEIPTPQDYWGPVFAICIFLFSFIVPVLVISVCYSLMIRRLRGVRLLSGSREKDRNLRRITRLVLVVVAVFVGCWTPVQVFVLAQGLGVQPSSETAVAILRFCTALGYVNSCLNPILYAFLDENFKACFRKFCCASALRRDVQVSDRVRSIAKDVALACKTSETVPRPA

This test concerns the target human opioid receptor-like (ORL-1) (Homo sapiens (Human), UniProt P41146). Nature of the test: In vitro ORL-1 receptor [35S]GTPγS functional assay. Type of test: biochemical.
The term EC50 denotes the concentration needed to bring the measured effect to its halfway point. A high value points to a less potent agent. For `COc1cnc(-c2nc3ccccc3n2[C@H]2C[C@H]3CCC[C@@H](C2)N3[C@@H]2C[C@@H]3CCCC[C@@H](C3)C2)cn1` [ZA42, 1-((1R,3R,5S)-9-((1R,6S,8r)-bicyclo[4.3.1]decan-8-yl)-9-azabicyclo[3.3.1]nonan-3-yl)-2-(5-methoxypyrazin-2-yl)-1H-benzo[d]imidazole], the EC50 is above 20000 nM.

As to `O=C(O)CCN1CCC(c2nc3ccccc3n2[C@H]2C[C@H]3CCC[C@@H](C2)N3[C@@H]2C[C@@H]3CCCC[C@@H](C3)C2)CC1` [ZA08, 3-(4-(1-((1R,3R,5S)-9-((1R,6S,8s)-bicyclo[4.3.1]decan-8-yl)-9-azabicyclo[3.3.1]nonan-3-yl)-1H-benzo[d]imidazol-2-yl)piperidin-1-yl)propanoic acid], the EC50 is 253 ± 20 nM.

`O=C(O)CCN1CC[C@H](c2nc3ccccc3n2[C@H]2C[C@H]3CCC[C@@H](C2)N3[C@@H]2C[C@@H]3CCCC[C@@H](C3)C2)C1` [H32d(ii), 3-((S)-3-(1-((1R,3R,5S)-9-((1R,6S,8s)-bicyclo[4.3.1]decan-8-yl)-9-azabicyclo[3.3.1]nonan-3-yl)-1H-benzo[d]imidazol-2-yl)pyrrolidin-1-yl)propanoic acid]: the EC50 came out at 160 ± 35 nM.

For `O=C(O)CN1CCC(c2nc3ccccc3n2[C@H]2C[C@H]3CCC[C@@H](C2)N3[C@@H]2C[C@@H]3CCCC[C@@H](C3)C2)CC1` [ZA07, 2-(4-(1-((1R,3R,5S)-9-((1R,6S,8s)-bicyclo[4.3.1]decan-8-yl)-9-azabicyclo[3.3.1]nonan-3-yl)-1H-benzo[d]imidazol-2-yl)piperidin-1-yl)acetic acid], the EC50 came out at 140 ± 17 nM.

Consider `O=C(O)C1CCN(Cc2nc3ccccc3n2[C@H]2C[C@H]3CCC[C@@H](C2)N3[C@H]2C[C@@H]3CCC[C@@H](C3)C2)CC1` [ZA23, 1-((1-((1R,1′R,3r,3′R,5S,5′S)-[3,9′-bi(9′-azabicyclo[3.3.1]nonan)]-3′-yl)-1H-benzo[d]imidazol-2-yl)methyl)piperidine-4-carboxylic acid], for which the EC50 is above 20000 nM.

Compound `COCCOCCOCCN1CCC[C@@H](c2nc3ccccc3n2[C@H]2C[C@H]3CCC[C@@H](C2)N3[C@H]2C[C@@H]3CCC[C@@H](C3)C2)C1` [ZA11, (1R,1′R,3r,3′R,5S,5′S)-3′-(2-((R)-1-(2-(2-(2-methoxyethoxy)ethoxy)ethyl)piperidin-3-yl)-1H-benzo[d]imidazol-1-yl)-9′-aza-3,9′-bi(bicyclo[3.3.1]nonane)] gave a concentration for a half-maximal effect (EC50) of 502 ± 99 nM.

Consider `O=c1cc(-c2nc3ccccc3n2[C@H]2C[C@H]3CCC[C@@H](C2)N3[C@@H]2C[C@@H]3CCCC[C@@H](C3)C2)[nH]c(=O)[nH]1` [ZA71, 6-(1-((1R,3R,5S)-9-((1R,6S,8r)-bicyclo[4.3.1]decan-8-yl)-9-azabicyclo[3.3.1]nonan-3-yl)-1H-benzo[d]imidazol-2-yl)pyrimidine-2,4(1H,3H)-dione], for which the EC50 was above 20000 nM.

`O=C(O)CN1CCC[C@@H]1c1nc2ccccc2n1[C@H]1C[C@H]2CCC[C@@H](C1)N2C1CCCCCCCCC1` [E30c(ii), 2-((R)-2-(1-((1R,3r,5S)-9-cyclodecyl-9-azabicyclo[3.3.1]nonan-3-yl)-1H-benzo[d]imidazol-2-yl)pyrrolidin-1-yl)acetic acid] yielded an EC50 of 336 ± 27 nM.

The compound `c1ccc2c(c1)nc(-c1nnn[nH]1)n2[C@H]1C[C@H]2CCC[C@@H](C1)N2[C@@H]1C[C@@H]2CCCC[C@@H](C2)C1` [ZA39, 1-((1R,3R,5S)-9-((1R,6S,8r)-bicyclo[4.3.1]decan-8-yl)-9-azabicyclo[3.3.1]nonan-3-yl)-2-(1H-tetrazol-5-yl)-1H-benzo[d]imidazole] displayed an EC50 above 20000 nM.

Compound `COCCOCCOCCN1CCC[C@H](c2nc3ccccc3n2[C@H]2C[C@H]3CCC[C@@H](C2)N3[C@H]2C[C@@H]3CCC[C@@H](C3)C2)C1` [ZA12, (1R,1′R,3r,3′R,5S,5′S)-3′-(2-((S)-1-(2-(2-(2-methoxyethoxy)ethoxy)ethyl)piperidin-3-yl)-1H-benzo[d]imidazol-1-yl)-9′-aza-3,9′-bi(bicyclo[3.3.1]nonane)] returned an EC50 of 390 ± 34 nM.

Compound `COc1cnc(-c2nc3ccccc3n2[C@H]2C[C@H]3CCC[C@@H](C2)N3[C@H]2C[C@@H]3CCC[C@@H](C3)C2)cn1` [ZA63, (1R,1′R,3r,3′R,5S,5′S)-3′-(2-(5-methoxypyrazin-2-yl)-1H-benzo[d]imidazol-1-yl)-9′-aza-3,9′-bi(bicyclo[3.3.1]nonane)] registered an EC50 above 20000 nM.
